≈ marks a conversion by molar mass, not a printed value. Where two headings read alike, the source gives them in different places.
Tests used:
Candida albicans [1] = assay: Single dose therapy of rat vaginitis (vaginal candidiasis) induced by two challenge levels; type: in vivo; details: 0.2 ml of 10% solution intravaginally, 24 hours after treatment
Protocol: To compare the activity of N-(4-hexylphenyl)-4,5-dihydro-2-thiazolamine with that of the well established antifungal agents miconazole and Clotrimazole, vaginal candidiasis was induced in rats.
Groups of 6 female, ovariectomized rats, 180-200 gram weight, were pretreated for 2 successive days with 0.5 mg of progesterone and 0.5 mg of estradiol administered subcutaneously to induce oestrus. Forty-eight hours later rats were infected intravaginally on 2 successive days with Candida albicans cells. Challenge levels of 1×10^7 and 1×10^6 cells were employed. Seventy-two hours after infection, the rats were treated topically (intravaginally) with 0.2 ml of a 10% solution of test compound in a vehicle consisting of the following: cetyl alcohol, 3.5 gm; glycerol monostearate polyethyleneglycol 100, 4.0 gm; diglycol stearate, 3.0 gm; polyethyleneglycol 400, 18.75 gm; and purified water, 18.75 gm.
Twenty-four hours after treatment, vaginal washings were collected, diluted and mixed with Mycosel agar in petri dishes. The dishes were incubated for 48 hours and colonies were counted to determine the surviving number of yeast cells per vaginal washing.

Torulopsis glabrata = assay: Minimal inhibitory concentration against yeasts (Mycophil agar, Steers-Foltz apparatus); type: cell-based; details: Nakaseomyces glabratus; 24 hours at 37° C.
Protocol: (§1) The compounds of the present invention show activity against pathogenic fungi in vitro and in vivo. The activity of N-(4-hexylphenyl)-4,5-dihydro-2-thiazolamine against various yeast fungi commonly responsible for diseases of humans and animals is illustrated in Table I.
(§2) The compound was prepared in 20 ml aliquots of Mycophil agar at concentrations of 1.5 μM to 250 μM. The agar surfaces were innoculated with approximately 1×10^5 yeast cells/ml using a Steers-Foltz apparatus. The plates were incubated for 24 hours at 37° C. and examined for yeast growth. The minimal inhibitory concentration (MIC) is reported as the lowest concentration of compound that inhibited growth.

Candida pseudotropicalis = assay: as above; type: cell-based; details: Kluyveromyces marxianus; 24 hours at 37° C.
Protocol: as §1, §2

Candida parapsilosis = assay: as above; type: cell-based; details: Lodderomyces parapsilosis; 24 hours at 37° C.
Protocol: as §1, §2

Candida albicans [2] = assay: as above; type: cell-based; details: 24 hours at 37° C.
Protocol: as §1, §2

Candida tropicalis = assay: as above; type: cell-based; details: 24 hours at 37° C.
Protocol: as §1, §2

Clc1ccccc1C(c1ccccc1)(c1ccccc1)n1ccnc1 [Clotrimazole]
% Killed (Candida albicans [1]; challenge 1 × 10^6 cells): 83% | Cells/ml Lavage (Candida albicans [1]; challenge 1 × 10^6 cells): 1 × 10^4 Cells/ml | % Killed (Candida albicans [1]; challenge 1 × 10^7 cells): 75% | Cells/ml Lavage (Candida albicans [1]; challenge 1 × 10^7 cells): 5 × 10^4 Cells/ml

Clc1ccc(COC(Cn2ccnc2)c2ccc(Cl)cc2Cl)c(Cl)c1 (stereo not shown) [Miconazole, miconazole]
% Killed (Candida albicans [1]; challenge 1 × 10^6 cells): 88% | Cells/ml Lavage (Candida albicans [1]; challenge 1 × 10^6 cells): 7 × 10^3 Cells/ml | % Killed (Candida albicans [1]; challenge 1 × 10^7 cells): 90% | Cells/ml Lavage (Candida albicans [1]; challenge 1 × 10^7 cells): 2 × 10^4 Cells/ml

CCCCCCc1ccc(NC2=NCCS2)cc1 [N-(4-Hexylphenyl)-4,5-dihydro-2-thiazolamine]
MIC (Torulopsis glabrata): 8 µg/mL (≈ 30.5 µM) | MIC (Candida pseudotropicalis): 2 µg/mL (≈ 7.62 µM) | MIC (Candida parapsilosis): 4 µg/mL (≈ 15.2 µM) | MIC (Candida albicans [2]; Candida albicans, strain 1, read-out: MIC): 8 µg/mL (≈ 30.5 µM) | MIC (Candida albicans [2]; strain 8): 8 µg/mL (≈ 30.5 µM) | MIC (Candida albicans [2]; strain 10): 8 µg/mL (≈ 30.5 µM) | MIC (Candida albicans [2]; strain 14): 8 µg/mL (≈ 30.5 µM) | MIC (Candida albicans [2]; strain 16): 8 µg/mL (≈ 30.5 µM) | MIC (Candida tropicalis; Candida tropicalis, strain 4, read-out: MIC): 8 µg/mL (≈ 30.5 µM) | MIC (Candida tropicalis; strain 20): 8 µg/mL (≈ 30.5 µM) | % Killed (Candida albicans [1]; challenge 1 × 10^6 cells): 97% | Cells/ml Lavage (Candida albicans [1]; challenge 1 × 10^6 cells): 2 × 10^3 Cells/ml | % Killed (Candida albicans [1]; challenge 1 × 10^7 cells): 98% | Cells/ml Lavage (Candida albicans [1]; challenge 1 × 10^7 cells): 5 × 10^3 Cells/ml
